Legend:
Assay in all cases: relative viability (nuclei count vs DMSO), 5 days (fraction); higher = more cells survive
[1] = compound: COc1cc2nc(N3CCCN(C)CC3)nc(NC3CCN(Cc4ccccc4)CC3)c2cc1OC + O=C(c1cc(Cc2n[nH]c(=O)c3ccccc23)ccc1F)N1CCN(C(=O)C2CC2)CC1 [Olaparib] (partner 8 µM)
Summary of the method: (§1)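 Lung cancer cell lines, seeded in 1536-well plates, were treated the following day by pin tool with a single drug or with five library-drug doses (not always all listed) in √10 steps on top of a fixed anchor-drug dose. Cells were fixed and nuclei stained in one step after 5 days, and nuclei were counted. Relative viability is the nuclei count for treated wells divided by that for vehicle wells, reported as medians of duplicate plates.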

[2] = compound: COc1cc2nc(N3CCCN(C)CC3)nc(NC3CCN(Cc4ccccc4)CC3)c2cc1OC + CS(=O)(=O)N1CCN(Cc2cc3nc(-c4cccc5[nH]ncc45)nc(N4CCOCC4)c3s2)CC1 [Pictilisib] (partner 1 µM)
Summary of the method: as §1

AZD6482 + Dasatinib = compound: Cc1cc([C@@H](C)Nc2ccccc2C(=O)O)c2nc(N3CCOCC3)cc(=O)n2c1 [AZD6482] + Cc1nc(Nc2ncc(C(=O)Nc3c(C)cccc3Cl)s2)cc(N2CCN(CCO)CC2)n1 [Dasatinib] (partner 0.075 µM)
Summary of the method: as §1

[3] = compound: COc1cc2nc(N3CCCN(C)CC3)nc(NC3CCN(Cc4ccccc4)CC3)c2cc1OC + CC(C)C[C@H](NC(=O)[C@H](Cc1ccccc1)NC(=O)c1cnccn1)B(O)O [Bortezomib] (partner 0.002 µM)
Summary of the method: as §1

Cell Line | relative viability ([1]; first compound 0.2 µM) | relative viability ([1]; first compound 0.6325 µM) | relative viability ([1]; first compound 2 µM) | relative viability ([1]; first compound 6.325 µM) | relative viability ([2]; first compound 0.2 µM) | relative viability ([2]; first compound 0.6325 µM) | relative viability ([2]; first compound 2 µM) | relative viability ([2]; first compound 6.325 µM) | relative viability (AZD6482 + Dasatinib; first compound 0.08 µM) | relative viability (AZD6482 + Dasatinib; first compound 0.253 µM) | relative viability (AZD6482 + Dasatinib; first compound 0.8 µM) | relative viability (AZD6482 + Dasatinib; first compound 2.53 µM) | relative viability (AZD6482 + Dasatinib; first compound 8 µM) | relative viability ([3]; first compound 0.2 µM) | relative viability ([3]; first compound 0.6325 µM) | relative viability ([3]; first compound 2 µM) | relative viability ([3]; first compound 6.325 µM)
HCC-827 | 0.753 | 0.626 | 0.685 | 0.622 | 1.04 | 1.09 | 0.636 | 0.886 | 0.255 | 0.2 | 0.197 | 0.161 | 0.214 | 0.99 | 1.13 | 0.786 | 1.06
HOP-62 | 0.393 | 0.202 | 0.355 | 0.537 | 0.586 | 0.688 | 0.555 | 0.496 | 0.428 | 0.528 | 0.572 | 0.299 | 0.349 | 0.623 | 0.869 | 0.855 | 0.469
IA-LM | 0.682 | 0.75 | 0.831 | 0.756 | 0.342 | 0.389 | 0.419 | 0.322 | – | – | – | – | – | 0.705 | 0.764 | 1.04 | 0.737
LC-2-ad | 0.778 | 0.728 | 0.72 | 0.701 | 0.481 | 0.467 | 0.534 | 0.473 | 0.431 | 0.357 | 0.537 | 0.306 | 0.282 | 1.03 | 1.01 | 1.16 | 1.04
LCLC-97TM1 | 0.488 | 0.312 | 0.48 | 0.63 | 0.186 | – | 0.149 | 0.139 | 0.87 | 0.711 | 0.869 | 0.611 | 0.486 | 0.439 | 0.939 | 0.697 | 0.517
LCLC-103H | 0.751 | 0.732 | 0.802 | 0.748 | 0.635 | 0.666 | 0.656 | 0.585 | 0.361 | 0.359 | 0.224 | 0.251 | 0.225 | 1.18 | 1.09 | 1.31 | 1.01
LK-2 | 0.778 | 0.68 | 0.893 | 0.867 | 0.621 | 0.565 | 0.669 | 0.632 | 0.349 | 0.286 | 0.327 | 0.26 | 0.221 | – | – | – | –
LOU-NH91 | 0.911 | 0.918 | 0.968 | 0.958 | 0.546 | 0.585 | 0.505 | 0.566 | 0.394 | 0.486 | 0.577 | 0.406 | 0.376 | 0.481 | 0.552 | 0.465 | 0.517
LU99A | 0.287 | 0.215 | 0.249 | 0.287 | 0.322 | 0.304 | 0.297 | 0.278 | 0.562 | 0.522 | 0.397 | 0.389 | 0.407 | 1.26 | 1.08 | 1.22 | 1.01
LXF-289 | 1.03 | 1.07 | 1.12 | 1.05 | 0.8 | 0.778 | 0.804 | 0.762 | 0.188 | 0.15 | 0.193 | 0.106 | 0.123 | 0.98 | 0.973 | 1.03 | 0.985
NCI-H23 | 0.299 | 0.271 | 0.344 | 0.285 | 0.438 | 0.491 | 0.574 | 0.362 | 0.746 | 0.952 | 0.511 | 0.572 | 0.368 | 1 | 0.943 | 1.2 | 0.918
NCI-H358 | 0.51 | 0.628 | 0.644 | 0.568 | 0.368 | 0.422 | 0.348 | 0.269 | 0.151 | 0.186 | 0.132 | 0.0881 | 0.153 | – | – | – | –
NCI-H522 | 0.556 | 0.788 | 0.58 | 0.554 | – | – | – | – | 0.832 | 0.783 | 0.879 | 0.974 | 0.747 | – | – | – | –
NCI-H1299 | 0.951 | 0.909 | 0.997 | 0.928 | 0.734 | 0.777 | 1.05 | 0.649 | – | – | – | – | – | 1.01 | 1.01 | 1.02 | 1.05
NCI-H1395 | 0.444 | 0.473 | 0.445 | 0.433 | 0.596 | 0.589 | 0.647 | 0.486 | 0.348 | 0.346 | 0.357 | 0.29 | 0.369 | – | – | – | –
NCI-H1563 | – | – | – | – | 0.566 | 0.622 | 0.558 | 0.55 | 0.487 | 0.479 | 0.442 | 0.449 | 0.465 | 0.849 | 0.921 | 0.808 | 0.778
NCI-H1648 | – | 0.713 | – | 1.01 | – | – | – | – | – | – | – | – | – | – | – | – | –
NCI-H1703 | 0.395 | 0.334 | 0.365 | 0.394 | 0.25 | 0.225 | 0.266 | 0.16 | – | – | – | – | – | 0.37 | 0.379 | 0.316 | 0.203
NCI-H1793 | 0.805 | 0.924 | 1.09 | 0.995 | 0.317 | 0.342 | 0.282 | 0.372 | 0.387 | 0.34 | 0.351 | 0.249 | 0.358 | – | – | – | –
NCI-H1944 | 0.416 | 0.436 | 0.397 | 0.396 | 0.342 | 0.365 | – | 0.336 | 0.223 | 0.191 | 0.238 | 0.172 | 0.182 | – | – | – | –
NCI-H2170 | 0.623 | 0.576 | 0.675 | 0.566 | 0.353 | 0.371 | 0.288 | 0.284 | 0.482 | 0.424 | 0.585 | 0.544 | 0.486 | – | – | – | –
NCI-H2342 | 0.482 | 0.349 | 0.46 | 0.459 | – | – | – | – | 0.301 | 0.292 | 0.34 | 0.277 | 0.31 | – | – | – | –
SK-MES-1 | 0.66 | 0.669 | 0.648 | 0.0414 | 0.339 | 0.41 | 0.364 | 0.31 | 0.179 | 0.235 | 0.169 | 0.125 | 0.168 | – | – | – | –
SW 900 | 0.675 | 0.926 | 0.705 | 0.677 | – | – | – | – | 0.446 | 0.419 | 0.462 | – | 0.252 | – | – | – | –

Reference: the supplement of paper PMC10307832
